The values that follow come from patent US8986652B2, “Method of preparing [123I]iodooctyl fenbufen amide and application thereof” (National Tsing Hua University, priority 2012, dated 2015).

Read-outs that look alike come from different tables or passages of the source.

The target of data set [1] is T1, COX-2 (Homo sapiens, UniProt P35354).
T1 sequence (P35354 18-604): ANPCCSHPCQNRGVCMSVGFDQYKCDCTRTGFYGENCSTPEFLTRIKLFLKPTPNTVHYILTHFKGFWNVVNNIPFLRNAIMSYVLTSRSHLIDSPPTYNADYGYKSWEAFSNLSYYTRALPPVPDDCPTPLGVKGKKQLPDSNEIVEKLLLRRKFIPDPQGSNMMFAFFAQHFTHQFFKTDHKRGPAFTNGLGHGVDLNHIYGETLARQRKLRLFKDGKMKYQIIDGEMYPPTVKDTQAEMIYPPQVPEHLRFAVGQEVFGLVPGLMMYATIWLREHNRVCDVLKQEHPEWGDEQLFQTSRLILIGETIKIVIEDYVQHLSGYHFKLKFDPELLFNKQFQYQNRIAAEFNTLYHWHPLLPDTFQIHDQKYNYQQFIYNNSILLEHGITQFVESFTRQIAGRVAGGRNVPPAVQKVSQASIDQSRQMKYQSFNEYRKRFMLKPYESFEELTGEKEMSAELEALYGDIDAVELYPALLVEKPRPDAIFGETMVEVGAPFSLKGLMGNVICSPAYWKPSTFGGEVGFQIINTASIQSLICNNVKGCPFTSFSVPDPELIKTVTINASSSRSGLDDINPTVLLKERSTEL
The conditions noted are these: read-out: IC50 value COX-2, lit. data; literature data; cited from earlier work.

Data set [2] addresses T2, COX-2 (Ovis aries, UniProt P79208).
T2 construct: purchased Cayman Chemical Ltd 760111
T2 sequence (P79208 17-603): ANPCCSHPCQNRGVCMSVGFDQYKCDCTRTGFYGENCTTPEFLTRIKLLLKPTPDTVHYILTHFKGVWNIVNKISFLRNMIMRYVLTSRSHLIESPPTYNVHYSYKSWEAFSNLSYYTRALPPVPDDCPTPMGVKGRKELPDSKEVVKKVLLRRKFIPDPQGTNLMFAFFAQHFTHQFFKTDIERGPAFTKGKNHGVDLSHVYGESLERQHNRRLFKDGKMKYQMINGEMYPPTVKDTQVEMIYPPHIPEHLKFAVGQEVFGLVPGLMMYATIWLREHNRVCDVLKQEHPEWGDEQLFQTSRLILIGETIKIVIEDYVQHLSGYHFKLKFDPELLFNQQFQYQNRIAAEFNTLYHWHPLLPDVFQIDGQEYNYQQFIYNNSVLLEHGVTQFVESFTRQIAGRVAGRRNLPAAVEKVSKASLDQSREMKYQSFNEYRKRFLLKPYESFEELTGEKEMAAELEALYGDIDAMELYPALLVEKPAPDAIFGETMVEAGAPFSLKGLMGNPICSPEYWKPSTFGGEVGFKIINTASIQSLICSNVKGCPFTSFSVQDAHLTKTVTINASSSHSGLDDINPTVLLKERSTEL
Briefly: Colorimetric COX inhibitor screening assay (competitive inhibition of substrate transfer, CIST), COX-2. The following applies: colorimetric COX (ovine) kit; read-out: IC50 value COX-2, this assay. Type of data set: biochemical.

Data set [3] has as its target T3, COX-1 (Ovis aries, UniProt P05979).
T3 construct: purchased Cayman Chemical Ltd 760111
T3 sequence (P05979 25-600): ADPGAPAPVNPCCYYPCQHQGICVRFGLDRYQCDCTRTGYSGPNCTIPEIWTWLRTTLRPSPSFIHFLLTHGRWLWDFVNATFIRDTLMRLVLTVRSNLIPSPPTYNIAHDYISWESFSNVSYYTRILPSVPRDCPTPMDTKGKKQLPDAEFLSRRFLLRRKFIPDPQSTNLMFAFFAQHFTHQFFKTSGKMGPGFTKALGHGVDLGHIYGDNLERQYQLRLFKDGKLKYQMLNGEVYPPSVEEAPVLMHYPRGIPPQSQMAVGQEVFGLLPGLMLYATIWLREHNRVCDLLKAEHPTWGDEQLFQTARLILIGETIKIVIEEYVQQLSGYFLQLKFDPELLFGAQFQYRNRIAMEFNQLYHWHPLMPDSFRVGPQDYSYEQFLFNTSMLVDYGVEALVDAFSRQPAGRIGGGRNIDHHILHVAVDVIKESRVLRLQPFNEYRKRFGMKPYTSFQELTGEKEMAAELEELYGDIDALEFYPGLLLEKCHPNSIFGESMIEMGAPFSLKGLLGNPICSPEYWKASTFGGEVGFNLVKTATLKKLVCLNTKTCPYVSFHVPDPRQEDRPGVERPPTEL
The experiment in a line: Colorimetric COX inhibitor screening assay (competitive inhibition of substrate transfer, CIST), COX-1. Type of data set: biochemical, ovine.

In data set [4] the target is COX-1 (Homo sapiens, UniProt P23219). The conditions noted are these: read-out: IC50 value COX-1, lit. data; literature data; cited from earlier work.
Chain of COX-1 (Homo sapiens, UniProt P23219) (P23219 24-599): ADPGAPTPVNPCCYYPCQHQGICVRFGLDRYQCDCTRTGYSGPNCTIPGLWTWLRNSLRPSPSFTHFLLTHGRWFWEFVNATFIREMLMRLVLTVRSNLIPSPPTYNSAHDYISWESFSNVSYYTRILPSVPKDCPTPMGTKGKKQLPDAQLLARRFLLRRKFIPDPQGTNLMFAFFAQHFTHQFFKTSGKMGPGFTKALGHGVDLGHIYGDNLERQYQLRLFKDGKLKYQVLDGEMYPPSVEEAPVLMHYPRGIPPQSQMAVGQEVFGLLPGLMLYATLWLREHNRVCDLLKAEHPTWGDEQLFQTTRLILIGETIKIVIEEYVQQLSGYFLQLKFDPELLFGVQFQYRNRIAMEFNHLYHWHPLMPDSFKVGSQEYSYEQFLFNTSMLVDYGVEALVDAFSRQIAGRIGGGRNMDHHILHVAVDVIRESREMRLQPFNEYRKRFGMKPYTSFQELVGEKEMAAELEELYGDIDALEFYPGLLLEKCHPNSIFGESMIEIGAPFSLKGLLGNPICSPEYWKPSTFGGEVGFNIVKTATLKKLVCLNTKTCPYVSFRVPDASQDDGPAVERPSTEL
Data set [5] concerns the target T2, COX-2. Briefly: Radioligand binding assay by gel filtration HPLC, COX-2. Further details: species or system ovine. The conditions noted are these: for Binding yield (bound conjugate, accumulated radioactivity fraction) with COX-2: 25° C., 15 min incubation, peak at 5 min / (5 min + 13.6 min). The protocol: (§1) The compound of formula 1 was purified by a set of HPLC consisting of the components of a Waters 510 pump, a linear UVIS detector (254 nm) in series with a Berthhold γ-flow detector, on a ZORBAX SIL column (250 mm×9.4 mm, 5 μm) at 3 mL/min with MeOH/CHCl3=1/99 as the mobile phase. Quality analysis of The compound of formula 1 was performed on the same HPLC setup as described above. The settings for radioactive ligand binding assay included a gel filtration column of TSKgel G3000PWx1 7.5×300 (mm) with a particle size of 10 μm which was purchased from Tosoh Bioscience LLC. The corresponding eluting conditions including PBS buffer and flow rate of 1 mL/min were employed throughout the experiment. The identity of The compound of formula 1 was confirmed with the compound of formula 2 on HPLC chromatogram after coinjection. The peak area of the UV absorbance at 254 nm that should correspond to the compound of formula 2 was calculated by interpolating to the standard curve relating mass to UV absorbance. Only a specific activity below 36 GBq/μmol can be measured accurately. Radioactive measurements were performed by a Capintec R15C dose calibrator.
(§2) The binding experiment was carried out in an eppendorf (0.2 mL) and stood for 10 min for equilibrium. An aliquot (10 μL) was drawn from the commercial stock solution (200 μL). Additional 30 μL of tris buffer (0.1 M, pH=8.0) was added. The solution (40 μL) of COX-1 or COX-2 each was added into a tris buffer (50 μL) together with the addition of a solution of the radiotracer the compound of formula 1 in EtOH with concentration ranging from 66 μCi/10 μL to 70 μCi/10 μL. The whole mixture (100 μL) was incubated at 25° C. for 15 min followed by submission to purification using HPLC. PBS buffer (0.1 M, pH=7.3) was employed as the eluent and the flow rate was set to be 1 mL/min.
(§3) The assay was based on that the retention time of the bound complex between radiolabeled ligand and enzyme was different from that of the unbound ligand in HPLC. […]
(In general: Size exclusion chromatography separates by hydrodynamic size, large species first.)

The target of data set [6] is T3, COX-1. The experiment in a line: Radioligand binding assay by gel filtration HPLC, COX-1. Further details: species or system ovine. The conditions noted are these: for Binding yield (bound conjugate, accumulated radioactivity fraction) with COX-1: 25° C., 15 min incubation, peak at 5 min / (5 min + 13.6 min). The protocol: as §1, §2, §3
For data set [7], the system named is thioacetamide-induced cholangiocarcinoma (CCA) rat. Briefly: SPECT/CT imaging in normal rat and thioacetamide-induced cholangiocarcinoma (CCA) rat. Type of data set: in vivo. The following applies: tail vein. As for the experimental part: All in vivo experiments were performed in compliance with the Taiwan National Health and Medical Research Council (NHMRC) Code of Practice for the care and use of animals for scientific purposes. Male-, Sprague-Dawley (SD) rats ([…]) were obtained from the Animal Research Center (Chang-Gung Memorial Hospital, Taiwan). Rats were housed under constant environmental conditions and were allowed free access to food and water throughout the experimental period. In vivo studies were performed in a thioacetamide-induced cholangiocarcinoma (CCA) rat (37th week post administration) along with a normal rat as a control.
The rats were anaesthetized via inhalant isoflurane (Forthane, Abott) in 200 mL/min oxygen during the imaging study. […]
The compound of formula 1 (0.76 mCi/1 mL) was administered by the CCA rat via tail vein injection to obtain a summation of one-hour Single Photon Emission Computer Tomography (SPECT) imaging data (FIG. 4(A)). The normal rat was injected with the residual radioactivity of the compound of formula 1 (1.39 mCi/1 mL) (FIG. 4 (B)). All in vivo experiments were performed in compliance with the NHMRC Taiwan Code of Practice for the care and use of animals for scientific purposes, and the raw data from the image further analyzed by Preclinical Multi-Modality Data Analysis software (PMOD Technologies Ltd, Zurich, Switzerland).

Data set [8] has as its system rat liver tumor lesion. The conditions noted are these: cited from earlier work.
Data set [9] has as its system NO. The conditions noted are these: antioxidant (e.g. NO) assay; cited from earlier work.
Where [10] appears, read: colorimetric COX (ovine) kit, read-out: IC50 value COX-1, this assay.

One may read the IC50 as the concentration that gives 50% inhibition. What is called melting point is the temperature, or range, at which the solid turns liquid.

In the case of `O=C(O)CCC(=O)c1ccc(-c2ccccc2)cc1` [fenbufen], the IC50 was 8.1 µM in data set [1], over 10 µM in data set [2], over 10 µM in [3] (setting [10]) and 3.9 µM in data set [4].
For the molecule `O=c1ccn([C@@H]2O[C@H](CO)[C@@H](O)[C@H]2O)c(=O)[nH]1` [uridine], the IC50 in data set [2] and in data set [3] (setting [10]) was over 10 µM each time.
In the case of `CCCCCCCCNC(=O)CCC(=O)c1ccc(-c2ccc(I)cc2)cc1` [compound of formula 2, 4-(4′-iodobiphenyl-4-yl)-n-octyl-4-oxobutanamide], the melting point was in the range of 181 to 182 °C. For the same molecule, the “Binding yield (bound conjugate, accumulated radioactivity fraction) with COX-2” value in [5] is 76%. Besides, the IC50 in data set [2] is over 10 µM. Further, the IC50 in [3] (setting [10]) is over 10 µM. In addition, the “Binding yield (bound conjugate, accumulated radioactivity fraction) with COX-1” value in [6] was 56%.
For the molecule `CCCCCCCCNC(=O)CCC(=O)c1ccc(-c2ccc([123I])cc2)cc1` [compound of formula 1, 4-(4′-[^123I]iodobiphenyl-4-yl)-N-octyl-4-oxobutanamide], the “In-vivo distribution of radioactivity, SPECT” value in data set [7] (CCA tumor rat, 0.76 mCi/1 mL) is “a heterogeneous radioactivity accumulation was addressed in the liver”; in data set [7] (normal rat, 1.39 mCi/1 mL, 30 mins post administration), “a homogeneous pattern, which was localized mainly in the liver and partly in the heart”. The “Binding yield (bound conjugate, accumulated radioactivity fraction) with COX-2” value in data set [5] is recorded as 79%. Moreover, the “Intact (unbound) form remained, COX-2 binding experiment” value in data set [5] (peak at 13.6 min) is recorded as 21%. Besides, the “Binding yield (bound conjugate, accumulated radioactivity fraction) with COX-1” value in data set [6] stood at 56%. Besides, the “Intact (unbound) form remained, COX-1 binding experiment” value in data set [6] (peak at 13.6 min) amounted to 44%.
On to `C=C(CC)C(=O)c1ccc(OCC(=O)NCCCC[18F])c(Cl)c1Cl` [[^18F]FBuEA, [^18F]-N-(4-fluorobutyl)ethacrynic amide], for which the “Image of tumor lesion” value in data set [8] is on record as “only shows the image of cold spot”.
For the molecule `Oc1ccc(C=Cc2cc(O)cc(O)c2)cc1` [Resveratrol], in data set [3], the IC50 came out at 3.9 µM.
Octyl fenbufen amide [OFA]: the Anti inflammatory effect result in data set [9] was “marginal”.
